# Test results as given in ChEMBL document CHEMBL3407459, “Synthesis and antimicrobial activity of novel structural hybrids of benzofuroxan and benzothiazole derivatives” (2015).
# What was measured:
# [1] = system: Escherichia coli; test: Antibacterial activity against Escherichia coli MG1655 harboring pColD-lux assessed as maximum induction factor at 10^-11 M after 120 mins by luminometric analysis; type: functional, K-12 substr. MG1655
# [2] = system: Escherichia coli; test: Antibacterial activity against Escherichia coli MG1655 harboring pGrpE-lux assessed as maximum induction factor at 10^-11 M after 120 mins by luminometric analysis; type: functional, K-12 substr. MG1655
# [3] = system: Escherichia coli; test: Antibacterial activity against Escherichia coli MG1655 harboring pIbpA-lux assessed as maximum induction factor at 10^-11 M after 120 mins by luminometric analysis; type: functional, K-12 substr. MG1655
# [4] = Activation of quorum sensing system luxR in Escherichia coli MG1655 harboring pVFR1-lux assessed as maximum induction factor at 10^-11 M after 120 mins by luminometric analysis; details: Escherichia coli str. K-12 substr. MG1655
# [5] = system: Escherichia coli; test: Antibacterial activity against Escherichia coli MG1655 harboring pRecA-lux assessed as maximum induction factor at 10^-12 M after 120 mins by luminometric analysis; type: functional, K-12 substr. MG1655
# [6] = system: Escherichia coli; test: Antibacterial activity against Escherichia coli MG1655 harboring pRecA-lux assessed as maximum induction factor at 10^-13 M after 120 mins by luminometric analysis; type: functional, K-12 substr. MG1655
# [7] = system: Vibrio sp.; test: Antibacterial activity against Vibrio aqamarinus VKPM B-11245 assessed as toxicity index at 10^-3 M measured for 2 hrs by luminometric analysis; type: functional
# [8] = system: Vibrio sp.; test: Antibacterial activity against Vibrio aqamarinus VKPM B-11245 assessed as toxicity index at 10^-4 M measured for 2 hrs by luminometric analysis; type: functional
# [9] = system: Vibrio sp.; test: Antibacterial activity against Vibrio aqamarinus VKPM B-11245 assessed as toxicity index at 10^-5 M measured for 2 hrs by luminometric analysis; type: functional
# [10] = system: Vibrio sp.; test: Antibacterial activity against Vibrio aqamarinus VKPM B-11245 assessed as toxicity index at 10^-6 M measured for 2 hrs by luminometric analysis; type: functional
# [11] = system: Vibrio sp.; test: Antibacterial activity against Vibrio aqamarinus VKPM B-11245 assessed as toxicity index at 10^-9 M measured for 2 hrs by luminometric analysis; type: functional
# [12] = system: Vibrio sp.; test: Antibacterial activity against Vibrio aqamarinus VKPM B-11245 assessed as toxicity index at 10^-12 M measured for 2 hrs by luminometric analysis; type: functional
# [13] = system: Vibrio sp.; test: Antibacterial activity against Vibrio aqamarinus VKPM B-11245 assessed as toxicity index at 10^-13 M measured for 2 hrs by luminometric analysis; type: functional
# [14] = system: Escherichia coli; test: Antibacterial activity against Escherichia coli MG1655 harboring pXen7 assessed as toxicity index at 10^-10 M measured for 2 hrs by luminometric analysis; type: functional, K-12 substr. MG1655
# [15] = system: Escherichia coli; test: Antibacterial activity against Escherichia coli MG1655 harboring pXen7 assessed as toxicity index at 10^-13 M measured for 2 hrs by luminometric analysis; type: functional, K-12 substr. MG1655
# [16] = system: Escherichia coli; test: Antibacterial activity against Escherichia coli MG1655 harboring pSoxS-lux assessed as maximum induction factor at 10^-3 M after 120 mins by luminometric analysis; type: functional, K-12 substr. MG1655
# [17] = system: Escherichia coli; test: Antibacterial activity against Escherichia coli MG1655 harboring pRecA-lux assessed as maximum induction factor at 10^-3 M after 120 mins by luminometric analysis; type: functional, K-12 substr. MG1655
# [18] = system: Escherichia coli; test: Antibacterial activity against Escherichia coli MG1655 harboring pColD-lux assessed as maximum induction factor at 10^-3 M after 120 mins by luminometric analysis; type: functional, K-12 substr. MG1655
# [19] = Activation of quorum sensing system luxR in Escherichia coli MG1655 harboring pVFR1-lux assessed as maximum induction factor at 10^-3 M after 120 mins by luminometric analysis; details: Escherichia coli str. K-12 substr. MG1655
# [20] = system: Escherichia coli; test: Antibacterial activity against Escherichia coli MG1655 harboring pGrpE-lux assessed as maximum induction factor at 10^-4 M after 120 mins by luminometric analysis; type: functional, K-12 substr. MG1655
# [21] = Activation of quorum sensing system luxR in Escherichia coli MG1655 harboring assessed as maximum induction factor at 10^-4 M after 120 mins by luminometric analysis; details: Escherichia coli str. K-12 substr. MG1655
# [22] = system: Escherichia coli; test: Antibacterial activity against Escherichia coli MG1655 harboring pRecA-lux assessed as maximum induction factor at 10^-5 M after 120 mins by luminometric analysis; type: functional, K-12 substr. MG1655
# [23] = system: Escherichia coli; test: Antibacterial activity against Escherichia coli MG1655 harboring pColD-lux assessed as maximum induction factor at 10^-5 M after 120 mins by luminometric analysis; type: functional, K-12 substr. MG1655
# [24] = system: Escherichia coli; test: Antibacterial activity against Escherichia coli MG1655 harboring pSoxS-lux assessed as maximum induction factor at 10^-6 M after 120 mins by luminometric analysis; type: functional, K-12 substr. MG1655
# [25] = system: Escherichia coli; test: Antibacterial activity against Escherichia coli MG1655 harboring pColD-lux assessed as maximum induction factor at 10^-6 M after 120 mins by luminometric analysis; type: functional, K-12 substr. MG1655
# [26] = Activation of quorum sensing system luxR in Escherichia coli MG1655 harboring pVFR1-lux assessed as maximum induction factor at 10^-6 M after 120 mins by luminometric analysis; details: Escherichia coli str. K-12 substr. MG1655
# [27] = system: Escherichia coli; test: Antibacterial activity against Escherichia coli MG1655 harboring pSoxS-lux assessed as maximum induction factor at 10^-7 M after 120 mins by luminometric analysis; type: functional, K-12 substr. MG1655
# [28] = system: Escherichia coli; test: Antibacterial activity against Escherichia coli MG1655 harboring pKatG-lux assessed as maximum induction factor at 10^-7 M after 120 mins by luminometric analysis; type: functional, K-12 substr. MG1655
# [29] = system: Escherichia coli; test: Antibacterial activity against Escherichia coli MG1655 harboring pRecA-lux assessed as maximum induction factor at 10^-7 M after 120 mins by luminometric analysis; type: functional, K-12 substr. MG1655
# [30] = system: Escherichia coli; test: Antibacterial activity against Escherichia coli MG1655 harboring pColD-lux assessed as maximum induction factor at 10^-7 M after 120 mins by luminometric analysis; type: functional, K-12 substr. MG1655
# [31] = system: Escherichia coli; test: Antibacterial activity against Escherichia coli MG1655 harboring pGrpE-lux assessed as maximum induction factor at 10^-7 M after 120 mins by luminometric analysis; type: functional, K-12 substr. MG1655
# [32] = system: Escherichia coli; test: Antibacterial activity against Escherichia coli MG1655 harboring pSoxS-lux assessed as maximum induction factor at 10^-8 M after 120 mins by luminometric analysis; type: functional, K-12 substr. MG1655
# [33] = system: Escherichia coli; test: Antibacterial activity against Escherichia coli MG1655 harboring pIbpA-lux assessed as maximum induction factor at 10^-8 M after 120 mins by luminometric analysis; type: functional, K-12 substr. MG1655
# [34] = system: Escherichia coli; test: Antibacterial activity against Escherichia coli MG1655 harboring pSoxS-lux assessed as maximum induction factor at 10^-9 M after 120 mins by luminometric analysis; type: functional, K-12 substr. MG1655
# [35] = system: Escherichia coli; test: Antibacterial activity against Escherichia coli MG1655 harboring pRecA-lux assessed as maximum induction factor at 10^-9 M after 120 mins by luminometric analysis; type: functional, K-12 substr. MG1655
# [36] = system: Escherichia coli; test: Antibacterial activity against Escherichia coli MG1655 harboring pSoxS-lux assessed as maximum induction factor at 10^-10 M after 120 mins by luminometric analysis; type: functional, K-12 substr. MG1655
# [37] = system: Escherichia coli; test: Antibacterial activity against Escherichia coli MG1655 harboring pRecA-lux assessed as maximum induction factor at 10^-10 M after 120 mins by luminometric analysis; type: functional, K-12 substr. MG1655
# [38] = system: Escherichia coli; test: Antibacterial activity against Escherichia coli MG1655 harboring pColD-lux assessed as maximum induction factor at 10^-10 M after 120 mins by luminometric analysis; type: functional, K-12 substr. MG1655
# [39] = system: Escherichia coli; test: Antibacterial activity against Escherichia coli MG1655 harboring pGrpE-lux assessed as maximum induction factor at 10^-10 M after 120 mins by luminometric analysis; type: functional, K-12 substr. MG1655
# [40] = system: Escherichia coli; test: Antibacterial activity against Escherichia coli MG1655 harboring pKatG-lux assessed as maximum induction factor at 10^-11 M after 120 mins by luminometric analysis; type: functional, K-12 substr. MG1655
compound,measurement,setting,value
O=[N+]([O-])c1cc([N+](=O)[O-])c2no[n+]([O-])c2c1Sc1nc2ccccc2s1,Activity,[1],1.07
same,Activity,[2],1.05
same,Activity,[3],1.47
same,Activity,[4],1.51
same,Activity,[5],0.94
same,Activity,[6],0.98
same,Activity,[7],98.83
same,Activity,[8],99.1
same,Activity,[9],98.83
same,Activity,[10],73.17
same,Activity,[11],0
same,Activity,[12],0
same,Activity,[13],3.44
same,Activity,[14],3.82
same,Activity,[15],0
same,Activity,[16],1.8
same,Activity,[17],0.25
same,Activity,[18],0.08
same,Activity,[19],1.68
same,Activity,[20],0.51
same,Activity,[21],0.99
same,Activity,[22],0.93
same,Activity,[23],0.87
same,Activity,[24],1.28
same,Activity,[25],1.04
same,Activity,[26],3.03
same,Activity,[27],1.02
same,Activity,[28],0.91
same,Activity,[29],1.01
same,Activity,[30],1.07
same,Activity,[31],1.02
same,Activity,[32],1.27
same,Activity,[33],1.18
same,Activity,[34],1.08
same,Activity,[35],1.02
same,Activity,[36],1.33
same,Activity,[37],1
same,Activity,[38],1.04
same,Activity,[39],1.15
same,Activity,[40],1.03
